Test results published in patent US20160279142A1, “COMBINATIONS OF A PHOSPHOINOSITIDE 3-KINASE INHIBITOR COMPOUND AND A CDK4/6 INHIBITOR COMPOUND FOR THE TREATMENT OF CANCER” (Genentech, Inc., priority 2015, published 2016).
Entries after “also recorded” stand apart in the source; their conditions may differ.

Assays:
[1] = test system: MCF-7 breast cancer xenografts; experiment: In vivo tumor efficacy study, MCF-7 breast cancer xenografts; conditions: MCF-7 xenograft mice; for CR: complete responses (100% tumor regression); for PR: partial responses (tumor regression >50% but <100%); for TTP 2X: time to progression 2X; for TTP 2X / AUC/Day % TGI (lower, upper): po qdx21; for AUC/Day % TGI (lower, upper): tumor growth inhibition vs vehicle; for Vol Day 21: tumor volume at day 21, po qdx21 (method b194 gives mm^3)
Experimental: The animals were fed ad libitum water (reverse osmosis, 1 ppm Cl) and NIH 31 Modified and Irradiated Lab Diet® consisting of 18.0% crude protein, 5.0% crude fat, and 5.0% crude fiber. The mice were housed on irradiated ALPHA-Dri® Bed-o'Cobs® Laboratory Animal Bedding in static microisolators on a 12-hour light cycle at 21-22° C. (70-72° F.) and 40-60% humidity. PRC specifically complies with the recommendations of the Guide for Care and Use of Laboratory Animals with respect to restraint, husbandry, surgical procedures, feed and fluid regulation, and veterinary care. The animal care and use program at PRC is accredited by the Association for Assessment and Accreditation of Laboratory Animal Care International (AAALAC), which assures compliance with accepted standards for the care and use of laboratory animals.
Xenografts were initiated with cancer cells, including breast cancer cell lines MCF-7 (Soule H. D. et al (1973) Jour. Nat. Cancer Inst. 51 (5): 1409-1416; Levenson A. S. et al (1997) Cancer Res. 57 (15): 3071-3078; LaCroix M. et al (2004) Breast Res. and Treatment 83 (3): 249-289) and MDA-MB-453 (Vranic S. et al (2011) Onc. Letters 2: 1131-1137; Hall R. E. et al (1994) Euro. Jour. Cancer 30(4):484-490). Cells were cultured in RPMI 1640 medium supplemented with 10% fetal bovine serum, 2 mM glutamine, 100 units/mL penicillin, […] streptomycin sulfate and 25 μg/mL gentamicin. The cells were harvested during exponential growth and resuspended in phosphate buffered saline (PBS) at a concentration of 5×10^6 or 10×10^6 cells/mL depending on the doubling time of the cell line. Tumor cells were implanted subcutaneously in the right flank, and tumor growth was monitored as the average size approached the target range of 100 to 150 mm3. Twenty-one days after tumor implantation, designated as Day 0 of the study, the mice were placed into four groups each consisting of ten mice with individual tumor volumes ranging from 75-172 mm3 and group mean tumor volumes from 120-121 mm3 (see Appendix A). Volume was calculated using the formula: […]
GDC-0032 was supplied as a dry powder in salt form, which contained 73% active agent, and was stored at room temperature protected from light. Drug doses were prepared weekly in 0.5% methylcellulose: 0.2% Tween 80 in deionized water (“Vehicle”) and stored at 4° C. The salt form containing 73% active agent was accounted for in the formulation of GDC-0032 doses. Doses of GDC-0032 were prepared on each day of dosing by diluting an aliquot of the stock with sterile saline (0.9% NaCl). All doses were formulated to deliver the stated mg/kg dosage in a volume of 0.2 mL per 20 grams of body weight (10 mL/kg).
All doses were scaled to the body weights of the individual animals and were provided by the route indicated in each of the figures.
Tumor volume was measured in 2 dimensions (length and width), using Ultra Cal IV calipers (Model 54 10 111; Fred V. Fowler Company), as follows: tumor volume (mm^3)=(length×width^2)×0.5 and analyzed using Excel version 11.2 (Microsoft Corporation). A linear mixed effect (LME) modeling approach was used to analyze the repeated measurement of tumor volumes from the same animals over time (Pinheiro, J. et al (2009); Tan, N. et al (2011) Clin. Cancer Res. 17(6):1394-1404). This approach addresses both repeated measurements and modest dropouts due to any non-treatment-related death of animals before study end. Cubic regression splines were used to fit a nonlinear profile to the time courses of log 2 tumor volume at each dose level. These nonlinear profiles were then related to dose within the mixed model. Tumor growth inhibition as a percentage of vehicle control (% TGI) was calculated as the percentage of the area under the fitted curve (AUC) for the respective dose group per day in relation to the vehicle, using the following formula: % TGI=100×(1−AUCdose/AUCveh). […]

[2] = test system: pAkt, pPRAS40, pS6RP, pRb, cleaved PARP in MDA-MB-453 tumors; experiment: Protein levels (pharmacodynamic markers) in MDA-MB-453 tumors; format: in vivo, mice; conditions: for levels of pRB (ratio pRb to tRb): GDC-0032 5 mg/kg, palbociclib 50 mg/kg, 1 hr and 4 hr (FIG. 9d)
Experimental: FIGS. 9a-d show ratios of protein levels of mice treated with vehicle, GDC-0032 at 5 mg/kg, palbociclib at 50 mg/kg, and the combination of GDC-0032 at 5 mg/kg+palbociclib at 50 mg/kg, measured at 1 hr and 4 hr.

[3] = test system: MCF7×2.3.ARO.LetR letrozole-resistant breast cancer cells (Letrozole-R1); experiment: CellTiter-Glo cell viability, letrozole-resistant MCF7x2.3.ARO.LetR; format: cell-based; conditions: letrozole-resistant MCF7 LetR (FIG. 1b, FIG. 4)
Experimental: (§1) Cell culture. MCF7 cell line was obtained from the American Type Culture Collection (ATCC, VA). The cells were tested and authenticated using gene expression and single nucleotide polymorphism genotyping arrays (Hoeflich K P, et al (2009) Clin Cancer Res, 15(14):4649-4664; Hu X, et al (2009) Mol Cancer Res, 7(4):511-522) and cultured in RPMI supplemented with 10% fetal bovine serum, 100 units/ml penicillin, 100 µg/ml streptomycin, 2 mM L-glutamine and NEAA at 37° C. under 5% CO2. Stable aromatase-expressing MCF7 cells (MCF7-ARO) were generated by transfection of a plasmid vector containing the full aromatase gene and a neomycin selection gene. The cells were maintained in androstenedione and all experiments were performed in the presence of androstenedione except where indicated
(§2) The CellTiter-Glo® Luminescent Cell Viability Assay is a homogeneous method to determine the number of viable cells in culture based on quantitation of the ATP present, which signals the presence of metabolically active cells. […]
(§3) The assay assesses the ability of compounds to enter cells and inhibit cell proliferation. The assay principle is based on the determination of the number of viable cells present by quantitating the ATP present in a homogenous assay where addition of the Cell Titer-Glo® reagent results in cell lysis and generation of a luminescent signal through the luciferase reaction. […]
Cell viability assays. […] After 4 days incubation, relative numbers of viable cells were estimated using CellTiter-Glo (Promega, Madison, Wis.) and total luminescence was measured on an Envision plate Reader (PerkinElmer, Foster City, Calif.). […]
Cell viability assays and combination assays: Cells were seeded at 1000-2000 cells/well in 384-well plates for 16 h. […] After 4 days, relative numbers of viable cells were measured by luminescence using Cell Titer-Glo® (Promega) according to the manufacturer's instructions and read on a Wallac Multilabel Reader® (PerkinElmer, Foster City). EC50 values were calculated using Prism® 4.0 software (GraphPad, San Diego). […]

[4] = test system: cyclin D1, cyclin E, phosphorylated Rb (Ser807/811) and cleaved PARP; experiment: Western blot pathway signaling in MCF7-ARO parental and resistant lines; format: cell-based; conditions: 24 hours of treatment (FIG. 2)
Experimental: Cells were treated for 24 hours with 20 nM GDC-0032 (Parental and Letrozole-R1) or 2.5 μM (Let-R1.GDC-0032-R) and/or 2.5 μM palbociclib.
Taselisib combines well with palbociclib in double-resistant MCF7-ARO cells (FIG. 1c). The effect on viability of taselisib and palbociclib as single agents is shown, respectively. The combination effect of the two drugs is indicated. Starting doses for taselisib were 80 nM for the parental and letrozole-R1 lines and 10 μM for […]. Palbociclib starting doses were 10 μM for all three lines (FIGS. 1a-c). Immunoblots from samples treated for 24 hours with 20 nM taselisib (Parental and Letrozole-R1) or 2.5 (Let-R1.taselisib-R). (D) Increased growth arrest is observed with combined PI3K and CDK4/6 inhibition. Immunoblots from samples treated for 24 hours with 20 nM taselisib (Parental and Letrozole-R1) or 2.5 μM (Let-R1. taselisib-R) and/or 2.5 μM palbociclib. Dotted lines for all viability data are indicative of CTG counts at the beginning of drug treatment. Error bars indicate standard deviation around the mean.

[5] = test system: MCF7×2.3.CMV.ARO.LetR letrozole-resistant breast cancer cells; experiment: CellTiter-Glo cell viability, MCF7x2.3.CMV.ARO.LetR; format: cell-based; conditions: dose titrations (FIG. 6)
Experimental: as §1, §2, §3

| Structure (SMILES) | CR [1] | PR [1] | TTP 2X [1] | AUC/Day % TGI (lower, upper) [1] | Vol Day 21 [1] | levels of pAkt (ratio pAkt to tAkt) ([2]; 5 mg/kg, 1 hr and 4 hr (FIG. 9a)) | levels of pPRAS40 (ratio pPRAS40 to tPRAS40) ([2]; 5 mg/kg, 1 hr and 4 hr (FIG. 9b)) | levels of pS6RP (ratio pS6RP to tS6RP) ([2]; 5 mg/kg, 1 hr and 4 hr (FIG. 9c)) | cell death based on cleaved PARP ([2]; 5 mg/kg, 1 hr and 4 hr (FIG. 9e)) | levels of pRB (ratio pRb to tRb) [2] | cell viability (CellTiter-Glo) [3] | cell viability (CellTiter-Glo) ([3]; listed as taselisib) | PI3K pathway signaling (immunoblot) [4] | cleaved PARP (immunoblot) [4] | cell viability (CellTiter-Glo) [5] |
| --- | --- | --- | --- | --- | --- | --- | --- | --- | --- | --- | --- | --- | --- | --- | --- |
| Cc1nc(-c2cn3c(n2)-c2ccc(-c4cnn(C(C)(C)C(N)=O)c4)cc2OCC3)n(C(C)C)n1 [GDC-0032, 2-(4-(2-(1-isopropyl-3-methyl-1H-1,2,4-triazol-5-yl)-5,6-dihydrobenzo[f]imidazo[1,2-d][1,4]oxazepin-9-yl)-1H-pyrazol-1-yl)-2-methylpropanamide] | 0 | 0 | 9.5 | 49 (16, 71) % | 349 | effectively decreased | effectively decreased | effectively decreased | induced cell death | decreased | potency remains; also recorded: equally sensitive | similarly sensitive | decreases | detected | potency remains |
| CC(=O)c1c(C)c2cnc(Nc3ccc(N4CCNCC4)cn3)nc2n(C2CCCC2)c1=O [palbociclib, 6-acetyl-8-cyclopentyl-5-methyl-2-(5-(piperazin-1-yl)pyridin-2-ylamino)pyrido[2,3-d]pyrimidin-7(8H)-one, reference compound] | 0 | 0 | 8.5 | 39 (0, 63) % | 421 |  |  |  |  | decreased | more resistant |  |  |  |  |
